One experiment addresses T1, GSPT1 (Homo sapiens, UniProt P15170+Q96SW2).
T1 construct: CAL-51 cells were purchased from DSMZ (cat. Number ACC302); host or cells: CAL-51 cells
Kind of experiment: GSPT1 degradation immunofluorescence assay in CAL-51 cells. Format: cell-based. To be noted: 6 hours treatment, compounds 201 to 307, read-out: Activity for GSPT1 degradation (DC50 code). The protocol: CAL-51 cells were purchased from DSMZ (cat. Number ACC302), sub-cultured in 90% Dulbecco's MEM (4.5 g/L glucose, Gibco 11965)+10% heat inactivated FBS (BioConcept, 2-01F1361) and incubated at 37° C., 5% CO2. For the assay, imaging microtiterplate Cell Carrier 96 Ultra (Perkin Elmer 6055302) were pre-coated with Fibronectin (Sigma F085, 30 μl at 0.2 μg/ml) in PBS (100p, Gibco 14190) for 45 min at room temperature, rinsed with PBS and CAL-51 cells (30K cells/well) were plated and let to adhere overnight. Cells were treated with compounds typically using a serial dilution ranging from 30 μM to 0.1 nM for 6 hours. Compounds were stored at 10 mM DMSO stocks. Vehicle (DMSO), positive (CC-885, 10 μM) and rescue controls (positive control plus 0.2 μM bortezomib) were also included at this stage. Cells were subsequently rinsed with PBS and fixed in 10% Formalin solution (50p, Sigma HT5011)) for 20 mins at room temperature. Following three consecutive PBS washes (100 μl), cells were permeabilized in 0.1% Triton X-100 in PBS (Sigma 93443, 50 μl) for 15 mins at room temperature. Following three further PBS washes, 50 μl blocking buffer (1% BSA, Sigma A4503, in PBS) was added for 45 min for signal-to-noise reduction. Primary antibody (human GSPT1, Sigma HPA052488) was diluted in blocking buffer (dil.1/300, 35 μl/well) and incubated with the cells overnight at 4° C. After three PBS washes, Alexa-fluor 488 coupled secondary antibodies (Invitrogen, A32731, dil. 1/1000), Alexa-fluor 647-Phalloïdin (Invitrogen, A22287, dil. 1/200) and DAPI (Thermo, #62248, dil.1/1000) were diluted in blocking buffer and incubated with the samples for 2 hours at room temperature. After three final PBS washes, samples were conserved in 100 μl PBS in the dark, until measurement. Image acquisition was performed on the Operetta High-Content Imager (Perkin-Elmer). Fluorescence intensity of Alexa-Fluor 488 (GSPT1), Alexa-Fluor 647 (Actin) and DAPI (Nucleus) were measured. For the determination of GSPT1 DC50 values, a custom algorithm implemented in the PerkinElmer image analysis software Harmony-Acapella@ was developed. After user-defined setting of adjustment parameters, the analysis was run identically without human intervention for all image fields. DAPI staining of the nuclei was used to determine the location of cells using standard nuclei detection modules. Segmentation artifacts were removed by threshold-based filters for area, roundness and intensity. The outline of the cells was determined analogously from the sum of the normalized, smoothed DAPI and Actin channel, starting from each nucleus.
The Alexa-Fluor 488 (GSPT1) signal intensity in each cell was finally measured, in order to obtain a Mean intensity per cell. GSPT1 degradation (DC50) was calculated after normalization to controls and data import in CDD vault Database, using non-linear regression.

Experiment [1] addresses T2, Full length wild-type cereblon CRBN (Homo sapiens, UniProt Q96SW2).
T2 construct: Full length wild-type cereblon CRBN (80.0 nM, 10 μL) was incubated in assay buffer
Put plainly: Fluorescence polarization (FP) assay indicating cereblon binding. On the procedure:
Compound activity was monitored in a fluorescence polarization (FP) homogeneous assay using 1-[5-({2-[2-(2-{[2-(2,6-dioxopiperidin-3-yl)-1,3-dioxo-2,3-dihydro-1H-isoindol-4-yl]oxy}acetamido)ethoxy]ethyl}carbamoyl)pentyl]-3,3-dimethyl-2-[(1E,3E)-5-[(2E)-1,3,3-trimethyl-5-sulfo-2,3-dihydro-1H-indol-2-ylidene]penta-1,3-dien-1-yl]-3H-indol-1-ium-5-sulfonate as a fluorescent probe. Unless otherwise stated, all reagents were purchased from Sigma Aldrich. Enzymatic reactions were conducted in Perkin-Elmer Black 384 well ProxiPlate Plus (catalogue no. 6008269) in 10 μL total volume. Full length wild-type cereblon CRBN (80.0 nM, 10 μL) was incubated in assay buffer containing 20 mM HEPES (pH 8.0), […], 0.5 mM TCEP and 0.05% Tween 20 in the presence or absence of compound (300 nL). Inhibitors were stored as 10 mM DMSO stocks in an inert environment (low humidity, dark, low oxygen, room temperature) using the Storage Pod System. Compounds and DMSO were dispensed using the Echo E5XX (Labcyte Inc. USA) to give concentrations from 300 to 0.937 or 3000 to 9.3 nM in a 12 data point curve. […] Following incubation at room temperature for 30 min, the assay was initiated by dispensing the probe to a final concentration of 5 nM (2.5 nL of a 20 μM stock) using the Echo E5XX. FP was measured after a period of 12 hours using a Pherastar plate reader (BMG Labtech, Germany) exciting at 590 nm and measuring the amount of parallel and perpendicular light at 675 nm. The FP signal was subsequently normalized to the no-compound control (i.e., DMSO). Analysis and IC50 values were derived using Dotmatics (Dotmatics UK) software.
(In general: In fluorescence polarisation assays a small probe gives low polarisation when free and higher when bound to something large.)

The DC50 is the concentration at which degradation of the target reaches its halfway point. Usually IC50 stands for the concentration that inhibits the measured activity by half. Read a low IC50 as higher potency.

T2 sequence (Q96SW2 whole entry): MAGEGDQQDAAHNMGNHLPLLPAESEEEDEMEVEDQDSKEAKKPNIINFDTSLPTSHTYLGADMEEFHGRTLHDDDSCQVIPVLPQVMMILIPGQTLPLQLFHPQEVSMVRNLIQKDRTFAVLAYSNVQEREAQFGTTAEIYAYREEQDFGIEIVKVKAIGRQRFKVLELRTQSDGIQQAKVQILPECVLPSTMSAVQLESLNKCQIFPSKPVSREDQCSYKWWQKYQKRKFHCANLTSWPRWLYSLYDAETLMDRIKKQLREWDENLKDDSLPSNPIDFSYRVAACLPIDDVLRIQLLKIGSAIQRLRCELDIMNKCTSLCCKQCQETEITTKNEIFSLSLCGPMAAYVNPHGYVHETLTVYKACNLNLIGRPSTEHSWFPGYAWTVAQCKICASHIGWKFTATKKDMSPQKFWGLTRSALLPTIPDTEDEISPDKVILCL
T1 sequence (P15170 whole entry): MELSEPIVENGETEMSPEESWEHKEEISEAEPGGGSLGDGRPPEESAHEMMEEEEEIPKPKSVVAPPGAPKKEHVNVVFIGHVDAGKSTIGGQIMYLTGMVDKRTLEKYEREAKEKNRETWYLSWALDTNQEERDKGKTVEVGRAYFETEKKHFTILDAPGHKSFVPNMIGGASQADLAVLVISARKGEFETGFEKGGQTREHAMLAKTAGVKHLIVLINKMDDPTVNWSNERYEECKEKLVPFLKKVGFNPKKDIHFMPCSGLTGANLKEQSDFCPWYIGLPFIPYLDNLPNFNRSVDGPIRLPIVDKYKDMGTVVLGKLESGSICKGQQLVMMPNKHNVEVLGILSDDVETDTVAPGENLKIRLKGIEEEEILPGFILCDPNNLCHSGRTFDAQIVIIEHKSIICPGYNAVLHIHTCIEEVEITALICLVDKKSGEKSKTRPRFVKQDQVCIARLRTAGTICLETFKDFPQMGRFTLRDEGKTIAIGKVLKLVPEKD
T1 sequence (Q96SW2 whole entry): as the sequence (Q96SW2 whole entry) above
T1 sequence (Q16531 whole entry partner): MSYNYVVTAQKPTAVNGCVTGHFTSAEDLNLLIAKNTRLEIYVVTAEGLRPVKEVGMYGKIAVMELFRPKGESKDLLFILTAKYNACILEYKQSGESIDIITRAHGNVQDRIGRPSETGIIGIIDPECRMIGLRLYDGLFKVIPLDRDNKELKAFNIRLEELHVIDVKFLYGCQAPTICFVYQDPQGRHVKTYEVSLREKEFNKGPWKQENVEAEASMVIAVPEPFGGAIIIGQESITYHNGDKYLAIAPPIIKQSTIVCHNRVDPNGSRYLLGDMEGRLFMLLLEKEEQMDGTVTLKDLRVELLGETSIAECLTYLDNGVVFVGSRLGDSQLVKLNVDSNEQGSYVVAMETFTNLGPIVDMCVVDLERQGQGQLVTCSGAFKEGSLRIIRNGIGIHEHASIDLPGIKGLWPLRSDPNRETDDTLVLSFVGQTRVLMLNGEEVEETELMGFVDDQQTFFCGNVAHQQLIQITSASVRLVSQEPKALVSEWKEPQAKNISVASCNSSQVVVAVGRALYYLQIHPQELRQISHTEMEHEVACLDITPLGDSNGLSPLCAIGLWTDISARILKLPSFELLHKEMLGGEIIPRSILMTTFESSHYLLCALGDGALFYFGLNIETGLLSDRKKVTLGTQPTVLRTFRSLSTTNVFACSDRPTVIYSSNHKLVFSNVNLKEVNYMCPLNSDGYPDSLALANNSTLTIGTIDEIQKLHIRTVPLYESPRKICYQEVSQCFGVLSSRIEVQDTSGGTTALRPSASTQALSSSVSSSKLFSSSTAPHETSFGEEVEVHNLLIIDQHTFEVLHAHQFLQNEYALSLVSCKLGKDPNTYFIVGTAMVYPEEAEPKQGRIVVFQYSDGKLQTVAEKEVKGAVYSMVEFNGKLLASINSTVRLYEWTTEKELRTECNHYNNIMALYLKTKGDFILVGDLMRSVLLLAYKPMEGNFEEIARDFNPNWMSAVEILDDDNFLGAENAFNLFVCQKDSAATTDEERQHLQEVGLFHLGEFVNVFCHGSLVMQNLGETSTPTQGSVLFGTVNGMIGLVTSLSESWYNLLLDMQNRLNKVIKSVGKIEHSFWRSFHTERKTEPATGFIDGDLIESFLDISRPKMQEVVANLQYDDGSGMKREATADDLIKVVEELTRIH

`COc1cc(C)c(Cl)cc1NC(=O)OCc1ccc2c(c1)C(=O)N(C1CCC(=O)NC1=O)C2` (centres unmarked) [Compound 201]: the DC50 on GSPT1 is less than 30 nM.
For the compound `O=C1CCC(N2Cc3ccc(COC(=O)Nc4cccc(OC(F)F)c4)cc3C2=O)C(=O)N1` (centres unmarked) [Compound 205], the 50% degradation concentration (DC50) at GSPT1 is less than 30 nM.
Compound `Cc1cc(NC(=O)OCc2ccc3c(c2)C(=O)N(C2CCC(=O)NC2=O)C3)cc(C)n1` (centres unmarked) [Compound 207] returned a concentration for half-maximal inhibition (IC50) in experiment [1] of less than 1100 nM.
For the compound `Cc1ccc(NC(=O)OCc2ccc3c(c2)C(=O)N(C2CCC(=O)NC2=O)C3)cc1Cl` (centres unmarked) [Compound 210], the half-maximal degradation concentration (DC50) on GSPT1 was less than 30 nM.
With `O=C1CCC(N2Cc3ccc(COC(=O)Nc4cc(Cl)cc(OC(F)(F)F)c4)cc3C2=O)C(=O)N1` (centres unmarked) [Compound 211], the half-maximal degradation concentration (DC50) on GSPT1 is less than 30 nM.
Compound `O=C1CCC(N2Cc3ccc(COC(=O)Nc4ccc5c(c4)OCC5)cc3C2=O)C(=O)N1` (centres unmarked) [Compound 218] returned a half-inhibitory concentration (IC50) in experiment [1] of less than 1100 nM.
As to `Cc1c(Cl)cc(NC(=O)OCc2ccc3c(c2)C(=O)N(C2CCC(=O)NC2=O)C3)cc1CN1CC2CCC(C1)O2` (centres unmarked) [Compound 221], on GSPT1, the half-maximal degradation concentration (DC50) is less than 30 nM.
Regarding `O=C1CCC(N2Cc3ccc(COC(=O)N4CCCC4)cc3C2=O)C(=O)N1` (centres unmarked) [Compound 226], the half-maximal inhibitory concentration (IC50) in experiment [1] was less than 1100 nM.
In turn, `O=C1CCC(N2Cc3ccc(COC(=O)NC4CCCC4)cc3C2=O)C(=O)N1` (centres unmarked) [Compound 229] had a 50% inhibitory concentration (IC50) in experiment [1] of less than 1100 nM.
As to `CCOc1cc(NC(=O)OCc2ccc3c(c2)C(=O)N(C2CCC(=O)NC2=O)C3)ccc1C` (centres unmarked) [Compound 233], in experiment [1], the half-maximal inhibitory concentration (IC50) is less than 1100 nM.
`Cc1c(CN2CCOCC2)cc(NC(=O)OCc2ccc3c(c2)C(=O)N(C2CCC(=O)NC2=O)C3)cc1OC(F)(F)F` (centres unmarked) [Compound 234]: the DC50 on GSPT1 was less than 30 nM.
`COc1cc(Cl)ccc1NC(=O)OCc1ccc2c(c1)C(=O)N(C1CCC(=O)NC1=O)C2` (centres unmarked) [Compound 238]: in experiment [1], the IC50 is less than 1100 nM.
With `O=C1CCC(N2Cc3ccc(COC(=O)Nc4ccc(-c5ccccc5)nc4)cc3C2=O)C(=O)N1` (centres unmarked) [Compound 242], the DC50 at GSPT1 was less than 30 nM.
Same read-out and setting: in the case of `CC(C)(C)c1ccc(NC(=O)OCc2ccc3c(c2)C(=O)N(C2CCC(=O)NC2=O)C3)cn1` (centres unmarked) [Compound 243] it was less than 30 nM.
`Cc1c(Cl)cc(NC(=O)OCc2ccc3c(c2)C(=O)N(C2CCC(=O)NC2=O)C3)cc1OC1CCNC1` (centres unmarked) [Compound 244] had an IC50 in experiment [1] of less than 1100 nM.
As for `CN1CCC(Oc2cc(Cl)cc(NC(=O)OCc3ccc4c(c3)C(=O)N(C3CCC(=O)NC3=O)C4)c2)C1` (centres unmarked) [Compound 246], on GSPT1, the DC50 is less than 30 nM.
Still for that read-out and setting: the result for `CC(C)(C)c1ccc(NC(=O)OCc2ccc3c(c2)C(=O)N(C2CCC(=O)NC2=O)C3)cc1` (centres unmarked) [Compound 247] reads less than 30 nM.
`Cc1c(Cl)cc(NC(=O)OCc2ccc3c(c2)C(=O)N(C2CCC(=O)NC2=O)C3)cc1OCCN1CCOCC1` (centres unmarked) [Compound 248]: the DC50 on GSPT1 was less than 30 nM.
For `CCc1ncc(NC(=O)OCc2ccc3c(c2)C(=O)N(C2CCC(=O)NC2=O)C3)cc1C` (centres unmarked) [Compound 249], the half-maximal degradation concentration (DC50) at GSPT1 was less than 30 nM.
On to `O=C1CCC(N2Cc3ccc(COC(=O)Nc4ccc(-c5ccccn5)cc4)cc3C2=O)C(=O)N1` (centres unmarked) [Compound 250], for which the DC50 on GSPT1 was less than 30 nM.
`COc1cc(NC(=O)OCc2ccc3c(c2)C(=O)N(C2CCC(=O)NC2=O)C3)cnc1C` (centres unmarked) [Compound 251]: the IC50 in experiment [1] is less than 1100 nM.
On the same count and under the same terms, in the case of `Cc1c(Cl)cc(NC(=O)OCc2ccc3c(c2)C(=O)N(C2CCC(=O)NC2=O)C3)cc1OCC1CCNC1` (centres unmarked) [Compound 252] it was less than 1100 nM.
As for `O=C1CCC(N2Cc3ccc(COC(=O)Nc4cnc5c(c4)CCC5)cc3C2=O)C(=O)N1` (centres unmarked) [Compound 253], the IC50 in experiment [1] was less than 1100 nM.
As for `O=C1CCC(N2Cc3ccc(COC(=O)Nc4cc(F)cc(OC(F)(F)F)c4)cc3C2=O)C(=O)N1` (centres unmarked) [Compound 257], the DC50 on GSPT1 is less than 30 nM.
On the same count and under the same terms, the result for `O=C1CCC(N2Cc3ccc(COC(=O)Nc4ccc(F)c(OC(F)(F)F)c4)cc3C2=O)C(=O)N1` (centres unmarked) [Compound 261] reads less than 30 nM.
With `CC1(c2ccc(NC(=O)OCc3ccc4c(c3)C(=O)N(C3CCC(=O)NC3=O)C4)cc2)COC1` (centres unmarked) [Compound 262], the concentration for half-maximal inhibition (IC50) in experiment [1] was less than 1100 nM.
As to `O=C1CCC(N2Cc3ccc(COC(=O)Nc4cnc(N5CCCCC5)nc4)cc3C2=O)C(=O)N1` (centres unmarked) [Compound 264], in experiment [1], the concentration for half-maximal inhibition (IC50) is less than 1100 nM.
In experiment [1], `O=C1CCC(N2Cc3ccc(COC(=O)Nc4ccc5c(c4)CCCO5)cc3C2=O)C(=O)N1` (centres unmarked) [Compound 267] had an IC50 of less than 1100 nM.
On to `CC1CCN(c2ccc(NC(=O)OCc3ccc4c(c3)C(=O)N(C3CCC(=O)NC3=O)C4)cn2)C1` (centres unmarked) [Compound 269], for which, on GSPT1, the DC50 is less than 30 nM.
As to `O=C1CCC(N2Cc3ccc(COC(=O)Nc4cnc(N5CCCCC5)c(F)c4)cc3C2=O)C(=O)N1` (centres unmarked) [Compound 272], the concentration for half-maximal inhibition (IC50) in experiment [1] was less than 1100 nM.
Regarding `CC1CCCN1c1ccc(NC(=O)OCc2ccc3c(c2)C(=O)N(C2CCC(=O)NC2=O)C3)cn1` (centres unmarked) [Compound 274], the DC50 on GSPT1 is less than 30 nM.
The compound `O=C1CCC(N2Cc3ccc(COC(=O)Nc4ccc(N5CCOCC5)nc4)cc3C2=O)C(=O)N1` (centres unmarked) [Compound 276] gave an IC50 in experiment [1] of less than 1100 nM.
In the case of `O=C1CCC(N2Cc3ccc(COC(=O)Nc4ccc5c(c4)OC(F)(F)O5)cc3C2=O)C(=O)N1` (centres unmarked) [Compound 279], the DC50 on GSPT1 was less than 30 nM.
Same read-out and setting: in the case of `O=C1CCC(N2Cc3ccc(COC(=O)Nc4ccc(-c5ccccc5F)nc4)cc3C2=O)C(=O)N1` (centres unmarked) [Compound 284] it was less than 30 nM.
Same read-out and setting: the result for `O=C1CCC(N2Cc3ccc(COC(=O)Nc4cnc(-c5ccccc5)c(F)c4)cc3C2=O)C(=O)N1` (centres unmarked) [Compound 285] reads less than 30 nM.
On to `CN(C)C1CN(c2ccc(NC(=O)OCc3ccc4c(c3)C(=O)N(C3CCC(=O)NC3=O)C4)cn2)C1` (centres unmarked) [Compound 289], for which the IC50 in experiment [1] is less than 1100 nM.
`COc1cc(NC(=O)OCc2ccc3c(c2)C(=O)N(C2CCC(=O)NC2=O)C3)cnc1-c1ccccc1` (centres unmarked) [Compound 290]: the DC50 on GSPT1 was less than 30 nM.
The compound `O=C1CCC(N2Cc3ccc(COC(=O)Nc4cccc(OC5CC5)c4)cc3C2=O)C(=O)N1` (centres unmarked) [Compound 293] registered an IC50 in experiment [1] of less than 1100 nM.
In the case of `O=C1CCC(N2Cc3ccc(COC(=O)Nc4cc(CN5CCOCC5)cc(OC(F)F)c4)cc3C2=O)C(=O)N1` (centres unmarked) [Compound 295], the DC50 at GSPT1 was less than 30 nM.
`O=C1CCC(N2Cc3ccc(COC(=O)Nc4cc(OCCN5CCOCC5)cc(OC(F)F)c4)cc3C2=O)C(=O)N1` (centres unmarked) [Compound 296]: the DC50 on GSPT1 is less than 30 nM.
In experiment [1], `O=C1CCC(N2Cc3ccc(COC(=O)NCc4ccccc4)cc3C2=O)C(=O)N1` (centres unmarked) [Compound 298] gave a concentration for half-maximal inhibition (IC50) of less than 1100 nM.
On the same count and under the same terms, the result for `O=C1CCC(N2Cc3ccc(COC(=O)Nc4cc(CN5CC6CC5CO6)cc(OC(F)F)c4)cc3C2=O)C(=O)N1` (centres unmarked) [Compound 300] reads less than 1100 nM.
With `CC(NC(=O)OCc1ccc2c(c1)C(=O)N(C1CCC(=O)NC1=O)C2)c1ccccc1` (centres unmarked) [Compound 302], the IC50 in experiment [1] is less than 1100 nM.
The same measure, in the same setting: the result for `O=C1CCC(N2Cc3ccc(COC(=O)Nc4ccc(C5CCC5)nc4)cc3C2=O)C(=O)N1` (centres unmarked) [Compound 305] reads less than 1100 nM.
